Source: patent US9717756B2, “Method of treating traumatic brain or spinal cord injury with biomembrane sealing agent and magnesium compounds” (Warsaw Orthopedic, Inc., priority 2006, dated 2017)

Legend:
pain = conditions: human, in vivo; cited from earlier work
[1] = tested on: carrageenan-induced hind paw acute inflammation; assay: Carrageenan hind paw acute inflammation, mechanical allodynia (up-down method); type: in vivo, rat; conditions: Example 7, 24 hours after carrageenan
Method: Animals were treated with saline (0.5% final), indomethacin, PEG, magnesium or combined PEG+magnesium solutions. Each animal received 2 injections, the first one 1 hour following carrageenan injection and the second injection 6 hours later. The total dose of PEG and magnesium chloride administered was of 2 and 0.135 g/kg (body weight) respectively. There were 10 animals per group.
Indomethacin (Fluka, cat. 57413, lot 450544/1) was dissolved in 25% hydroxyl-propyl beta cyclodextrin (hpBCD) by gentle heating and stirring. The PEG solution was composed of PEG3350 at 30% in 0.5% saline, the magnesium solution was composed of magnesium chloride at 2% and the combined PEG+magnesium solution was composed of 30% PEG3350+2% Magnesium Chloride (custom made by AAIPharma Developmental Services, Wilmington, N.C.). […]
Twenty-four hours following carrageenan injection into the left paw, the same paw was tested for mechanical allodynia. Baseline and post-treatment values for non-noxious mechanical sensitivity were evaluated using 8 Semmes-Weinstein filaments (Stoelting, Wood Dale, Ill., USA) with varying stiffness (0.4, 0.7, 1.2, 2.0, 3.6, 5.5, 8.5, and 15 g) according to the up-down method (Chaplan et al., 1994). […]
To evaluate the significance of difference between experimental groups, data were analyzed using an unpaired, two-tailed t statistical test with confidence intervals of 95%.

[2] = tested on: controlled cortical impact model of brain injury (TBI); assay: Morris Water Maze test of cognitive function after controlled cortical impact TBI; type: in vivo, rat
Description: Male Sprague-Dawley rats (Harlan Sprague-Dawley, Indianapolis, Ind.), weighing 350-450 grams each were given free access to food and water before the experiment. The animals were anesthetized with halothane (1% in 70%/30% NO2/O2 by mask).
Animals were anesthetized with isoflorane and placed in a stereotaxic frame in the supine position. A 6 mm craniotomy located approximately midway between bregma and lambda, just above the somatosensory cortex, was made using a Michele trephine. The skull disk was then removed without disturbing the underlying dura mater. The exposed brain was injured using an electronically controlled piston (5 mm diameter, 65 kdynes). The animals in the “sham” group underwent identical surgical procedures, but the surface of the brain was not impacted.
Following surgery, animals were placed in their home cage and dosing was initiated. Animals were treated with saline (Group 1: sham, Group 2: injured), PEG (Group 3: injured), magnesium (Group 4: injured) or a combination of PEG and magnesium solutions (Group 5: injured). The PEG solution was composed of PEG3350 at 30% in 0.5% saline (custom made by AAIPharma Developmental Services, Wilmington, N.C.). […] The magnesium solution was diluted in saline 1:1 before intravenous injection as recommended by the manufacturer. In the cases of combined PEG+Mg combined treatments, animal received the PEG and magnesium components from two individual solutions.
In more details, each animal received 2 injections: • Group 1: Sham—1.23 ml/kg of saline solution followed by 1.23 ml/kg of saline solution; • Group 2: Injured—1.23 ml/kg of saline solution followed by 1.23 ml/kg of saline solution; • Group 3: Injured—2.33 ml/kg of PEG solution followed by 0.12 ml/kg of saline solution; • Group 4: Injured—0.12 ml/kg of magnesium solution followed by 2.33 ml/kg of saline solution; • Group 5: Injured—2.33 ml/kg of PEG solution followed by 0.12 ml/kg of magnesium solution. […]
The effects of PEG, magnesium sulfate and combined treatment on recovery of cognitive function following TBI were evaluated using the Morris Water Maze Test. […]

[3] = tested on: spinal cord contusion at T10 (SCI); assay: Locomotor recovery, modified 12-point BBB scale, after spinal cord contusion (dural impact model); type: in vivo, rat; conditions: Example 4; iv, 15 min and 6 h post-injury; total 2 g/kg PEG, 0.12 g/kg magnesium sulfate
Method: Sprague-Dawley female rats (200-225 gm) received a spinal cord contusion using the Precision Scientific Inc pneumatic impactor. Prior to surgery, rats were assigned to different treatment groups based on a randomized block design so that on any given surgery day all treatments would be included. The rats were anesthetized with ketamine (80 mg/kg) and xylazine (10 mg/kg) before a laminectomy will be performed at the 10th thoracic vertebra (T10). The vertebral column was stabilized with angled clamps on the upper thoracic (T8) and lumbar (T11) levels and the impactor with a tip diameter of 2 mm was delivered at approximately 50 kd onto the exposed, intact dura overlying the dorsal spinal cord. The impactor was immediately removed, the wound irrigated with saline, and the muscle and skin openings sutured together. Female animals were used due to the paralysis associated with the injury and ease of voiding the bladder.
Following surgery, animals were placed in their home cage and dosing was initiated. Animals were treated with saline (Group 1: sham, Group 2: injured), PEG (Group 3: injured), magnesium (Group 4: injured) or a combination of PEG and magnesium solutions (Group 5: injured). […]
(§1) To evaluate the significance of difference between experimental groups, data were analyzed using an unpaired, two-tailed t statistical test with confidence intervals of 95%. […]

[4] = tested on: neuropathic pain after SCI; assay: Mechanical allodynia (neuropathic pain score, Semmes-Weinstein monofilament) after SCI; type: in vivo, rat; conditions: Example 6; up to 3 weeks post-injury
Method: Animals were prepared as described in Example 3.
Animals were tested for the development of neuropathic pain before and up to 3 weeks post-injury. Neuropathic pain occurrence and severity was evaluated by the response of the animal to a stimulus that is normally not painful or allodynia. Briefly, a modified Semmes-Weinstein monofilament (Stoelting Co, Wood Dale, Ill.) calibrated to generate a force of 15 mN was applied to the dorsal trunk at dermatomes corresponding to spinal segments immediately rostral to the lesion level (T1-T3). The monofilament was applied 10 times for 3 seconds, with each stimulus being separated by a 5 second interval, and the number of avoidance responses out of a possible 10 were recorded. Avoidance responses were defined as flinching, escape, vocalization, or abnormal aggressive behaviors. The scoring system used to monitor mechanical allodynia has been presented in details in Gris et al., 2004. Mechanical allodynia testing was conducted twice per week and the 2 tests were averaged for each animal and reported as a weekly pain score.
To evaluate the significance of difference between experimental groups, data were analyzed using an unpaired, two-tailed t statistical test with confidence intervals of 95%. The Welch's modification was also used to analyze the motor recovery to take in account the significant variability in the control group. […]

[5] = tested on: clip-compression injury at T4 (SCI); assay: Locomotor recovery, 21-point BBB open field test, after clip-compression SCI; type: in vivo, rat; conditions: Example 5; day 7 post-SCI; total 0.6 g/kg magnesium sulfate iv
Method: Wistar female rats weighing 200-250 grams received a controlled clip-compression injury at T4. This experimental model has been previously described in details in Gris et al., 2004. Briefly, animals were premedicated with diazepam (3.5 mg/kg, i.p.) and atropine (0.05 mg/kg, s.c.) in order to facilitate a smooth induction of anesthesia by 4% halothane and maintenance with 1.0-1.5% halothane. The T4 spinal cord segment was exposed by dorsal laminectomy and a modified aneurysm clip, calibrated to 50 grams compression was passed extradurally around the cord and spring released for 60 seconds. Nerve roots were not disrupted during the clip compression.
Following SCI, animals were placed in their home cage and dosing was initiated. […]
Locomotor recovery was assessed by the 21-point Basso, Beatie and Bresnahan (BBB) open field locomotor test (Basso et al., 1995), from day 3-21 after injury. Locomotor function was evaluated by 2 blinded investigators at each testing period.
as §1
Following SCI, rats were treated with saline, PEG, Mg or a combined solution of PEG and Mg. Locomotor recovery was assessed by the 21-point BBB score system from day 3-25 post-injury.

stroke = conditions: intravenous, up to 12 hours following stroke onset; 2589 patients; cited from earlier work
[6] = tested on: spinal cord contusion at T10 (SCI); assay: Spinal cord lesion volume after SCI contusion (eriochrome cyanine sections); type: in vivo, rat; conditions: Example 4, sacrificed on day 14, total 2 g/kg PEG, 0.12 g/kg magnesium sulfate
Method: Following surgery, animals were placed in their home cage and dosing was initiated. […]
At the end of the study, the spinal cords were extracted and fixed in 4% paraformaldehyde. […] Tissue sparing was determined by computed image analysis be from 10 evenly spaced sections through the injured T10 segment. […]

TBI = conditions: trial initiated in 1999; cited from earlier work

For `[Cl-].[Cl-].[Mg+2]` [Magnesium, magnesium chloride], the “duration of analgesic effect” value (pain) is given as no more than 4 h, the “effect on the pain score relative to animals treated with saline” value ([1]; total 2 g/kg PEG or 0.135 g/kg magnesium chloride) is given as “no significant effect” and the “effect on the loss of cognitive functions following brain injury” value ([2]; summary statement in the description) is given as “no effect”.

For `[Cl-].[Cl-].[Mg+2]` [magnesium chloride], the “effect on cognitive recovery after TBI” value ([2]; Example 2, total 1.4 g/kg PEG or 0.230 mmol/kg magnesium chloride) was “no significant effect”.

For `COc1ccc2c(c1)c(CC(=O)O)c(C)n2C(=O)c1ccc(Cl)cc1` [Indomethacin], the “mean pain score (mechanical allodynia)” value ([1]; carrageenan-saline 3.4+/−0.5, sham 12.7+/−1.1, higher is better) was 5.6+/−0.9.

With `O=S(=O)([O-])[O-].[Mg+2]` [Mg, magnesium sulfate] the “effect on motor functions following SCI (12-point BBB score) relative to SCI-Saline group” value [3] was “no effect”, the “effect on the development of neuropathic pain after SCI” value [4] was “no significant effect” and the “effect on motor recovery (21-point BBB)” value [5] was “Some improvement”. The “clinical improvement after stroke” value (stroke) was “no significant improvement”, the “reduction of the lesion volume relative to control group (SCI-Saline)” value [6] was 33% and the “preliminary data of clinical trial in TBI patients” value (TBI) was “negative”. For the same compound, the “effect on cognitive functions following TBI” value ([2]; Example 1, iv, 15 min and 6 h post-injury, total 1.4 g/kg PEG or 0.230 mmol/kg magnesium sulfate) was “no effect”.
